This note sets out measurements from patent US7262202B2, “Inhibitors of cyclin dependent kinases as anti-cancer agent” (Cyclacel Limited, priority 2001, dated 2007).

SMILES strings stand for the structures. Where two headings read alike, the source gives them in different places. Some results are limits rather than exact numbers.

The target of data set [1] is T1, CDK2/cyclin E (Homo sapiens, UniProt P24941).
T1 construct: His; made in house; host or cells: Sf9 insect cells (baculovirus)
Briefly: CDK2/Cyclin E kinase assay (GST-Rb phosphorylation, radiolabelled ATP).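 Note: enzyme was His-tagged CDK2/cyclin E co-expressed in baculovirus-infected Sf9 insect cells and purified over a metal-chelate column.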 In kind it is biochemical.

In data set [2] the test system is human tumour cell lines. Nature of the data set: cell-based anti-proliferative assays. The source says: These assays, including methods for their performance, are described in more detail in Example 3. Using such cell line and enzymes assays it may be determined whether a compound is anti-proliferative in the context of the present invention.
Selected compounds from the above examples were subjected to a standard cellular proliferation assay using a range of different human tumour cell lines. Standard 72-h MTT (thiazolyl blue; 3-[4,5-dimethylthiazol-2-yl]-2,5-diphenyltetrazolium bromide) assays were performed (Haselsberger, K.; Peterson, D. C.; Thomas, D. G.; Darling, J. L. Anti Cancer Drugs 1996, 7, 331–8; Loveland, B. E.; Johns, T. G.; Mackay, I. R.; Vaillant, F.; Wang, Z. X.; Hertzog, P. J. Biochemistry International 1992, 27, 501–10). Human tumour cell lines were obtained from the ATCC (American Type Culture Collection, 10801 University Boulevard, Manessas, Va. 20110-2209, USA).

Data set [3] concerns A549. Briefly: 72-h MTT cellular proliferation assay, A549. It counts as cell-based. The settings on record: human tumour cell line A549, 72-h MTT; read-out: Cytotoxicity (IC50, μM) A549. The source says: (§1) Selected compounds from the above examples were subjected to a standard cellular proliferation assay using a range of different human tumour cell lines.
Background: Tetrazolium assays rely on reduction of a dye to a coloured formazan, in cell work by metabolically active cells.

The subject of data set [4] is HT29. Briefly: 72-h MTT cellular proliferation assay, HT29. In kind it is cell-based. The settings on record: HT-29; human tumour cell line HT29, 72-h MTT; read-out: Cytotoxicity (IC50, μM) HT29.
Description: as §1

Data set [5] deals with Saos-2. Nature of the data set: 72-h MTT cellular proliferation assay, Saos-2. It counts as cell-based. The settings on record: human tumour cell line Saos-2, 72-h MTT; read-out: Cytotoxicity (IC50, μM) Saos-2.
Description: as §1

The mark [6] stands for this setting: bound stated, (±0.05), read-out: IC50 for cdk2/cyclinE.

In general, melting point refers to the temperature of the solid-liquid transition. Turning to `Cc1c[nH]c(C)c1-c1ccnc(Nc2ccc(Cl)cc2)n1` [Compound 5, (4-Chloro-phenyl)-[4-(2,4-dimethyl-1H-pyrrol-3-yl)-pyrimidin-2-yl]-amine], the melting point fell in the range of 219 to 223 °C. Besides, in data set [1] (setting [6]), the IC50 was less than 5000 nM. Further, the IC50 in data set [1] (read-out: CDK2/cyclin E (IC50)) amounted to 1700 nM.

As for `Cc1c[nH]c(C)c1-c1ccnc(Nc2ccc(F)cc2F)n1` [Compound 9, (2,4-Difluoro-phenyl)-[4-(2,4-dimethyl-1H-pyrrol-3-yl)-pyrimidin-2-yl]-amine], the melting point fell in the range of 219 to 220 °C.

Regarding `Cc1[nH]c(Br)c(C)c1-c1ccnc(Nc2ccc(F)cc2)n1` [Compound 50, [4-(5-Bromo-2,4-dimethyl-1H-pyrrol-3-yl)-pyrimidin-2-yl]-(4-fluoro-phenyl)-amine], in data set [1] (setting [6]), the IC50 was less than 1000 nM.

Regarding `Cc1[nH]c(C#N)c(C)c1-c1ccnc(Nc2cccc([N+](=O)[O-])c2)n1` [Compound 31, 3,5-Dimethyl-4-[2-(3-nitro-phenylamino)-pyrimidin-4-yl]-1H-pyrrole-2-carbonitrile], the “anti-proliferative activity in cell-based assays” value (from here on “anti-proliferative activity”) in data set [2] is “particularly effective anti-proliferative agents”.

On to `Cc1c[nH]c(C)c1-c1ccnc(Nc2ccc(F)c(F)c2)n1` [Compound 4, (3,4-Difluoro-phenyl)-[4-(2,4-dimethyl-1H-pyrrol-3-yl)-pyrimidin-2-yl]-amine], for which the IC50 in data set [1] (setting [6]) is less than 5000 nM; in data set [1] (read-out: CDK2/cyclin E (IC50)) it was 1300 ± 400 nM.

Turning to `Cc1[nH]c(CN2CCN(C)CC2)c(C)c1-c1ccnc(Nc2ccc(F)cc2)n1` [Compound 56, {4-[2,4-Dimethyl-5-(4-methyl-piperazin-1-ylmethyl)-1H-pyrrol-3-yl]-pyrimidin-2-yl}-(4-fluoro-phenyl)-amine], the IC50 in data set [3] was 13.8 µM; in data set [1] (setting [6]), less than 5000 nM; in data set [1] (read-out: CDK2/cyclin E (IC50)), 1510 nM; in data set [4], 5.09 µM; in data set [5] it was 14.2 µM. The “anti-proliferative activity” value in data set [2] is “particularly effective anti-proliferative agents”.

`Cc1c[nH]c(C)c1-c1ccnc(Nc2ccc(Cl)c(C(F)(F)F)c2)n1` [Compound 11, (4-Chloro-3-trifluoromethyl-phenyl)-[4-(2,4-dimethyl-1H-pyrrol-3-yl)-pyrimidin-2-yl]-amine] gave a melting point of 187.7 to 190.7 °C.

`CCN(CC)Cc1[nH]c(C)c(-c2ccnc(Nc3ccc(F)cc3)n2)c1C` [Compound 53, [4-(5-Diethylaminomethyl-2,4-dimethyl-1H-pyrrol-3-yl)-pyrimidin-2-yl]-(4-fluoro-phenyl)-amine]: the IC50 in data set [3] was 0.97 µM; in data set [1] (setting [6]), less than 1000 nM; in data set [1] (read-out: CDK2/cyclin E (IC50)) it was 870 nM; in data set [4], 1.31 µM; in data set [5], 1.61 µM. Further, the “anti-proliferative activity” value in data set [2] was “particularly effective anti-proliferative agents”.

On to `Cc1[nH]c(C(N)=O)c(C)c1-c1ccnc(Nc2ccc(F)cc2)n1` [Compound 44, 4-[2-(4-Fluoro-phenylamino)-pyrimidin-4-yl]-3,5-dimethyl-1H-pyrrole-2-carboxylic acid amide], for which the “anti-proliferative activity” value in data set [2] was “particularly effective anti-proliferative agents”.

With `Cc1ccc(Nc2nccc(-c3c(C)[nH]c(C#N)c3C)n2)cc1[N+](=O)[O-]` [Compound 37, 3,5-Dimethyl-4-[2-(4-methyl-3-nitro-phenylamino)-pyrimidin-4-yl]-1H-pyrrole-2-carbonitrile], the “anti-proliferative activity” value in data set [2] is listed as “particularly effective anti-proliferative agents”.

Regarding `Cc1c[nH]c(C)c1-c1ccnc(Nc2ccc(I)c(Cl)c2)n1` [Compound 16, (3-Chloro-4-iodo-phenyl)-[4-(2,4-dimethyl-1H-pyrrol-3-yl)-pyrimidin-2-yl]-amine], the melting point is 185 to 187.4 °C. The IC50 in data set [3] was found to be 4.39 µM. Moreover, the “anti-proliferative activity” value in data set [2] is “particularly effective anti-proliferative agents”. The IC50 in data set [1] (setting [6]) was less than 5000 nM. In addition, the IC50 in data set [1] (read-out: CDK2/cyclin E (IC50)) came to 1520 nM.

The compound `Cc1c[nH]c(C)c1-c1ccnc(Nc2cc(F)cc(F)c2)n1` [Compound 6, (3,5-Difluoro-phenyl)-[4-(2,4-dimethyl-1H-pyrrol-3-yl)-pyrimidin-2-yl]-amine] displayed a melting point of 153.3 to 156.8 °C. Also, the IC50 in data set [1] (setting [6]) is less than 5000 nM. Also, the IC50 in data set [1] (read-out: CDK2/cyclin E (IC50)) is 1300 nM.

Consider `Cc1[nH]c([N+](=O)[O-])c(C)c1-c1ccnc(Nc2ccc(F)cc2)n1` [Compound 47, [4-(2,4-Dimethyl-5-nitro-1H-pyrrol-3-yl)-pyrimidin-2-yl]-(4-fluoro-phenyl)-amine], for which, in data set [2], the “anti-proliferative activity” value was “particularly effective anti-proliferative agents”.

As for `Cc1[nH]c(C#N)c(C)c1-c1ccnc(Nc2ccc(O)cc2)n1` [Compound 33, 4-[2-(4-Hydroxy-phenylamino)-pyrimidin-4-yl]-3,5-dimethyl-1H-pyrrole-2-carbonitrile], the “anti-proliferative activity” value in data set [2] is recorded as “particularly effective anti-proliferative agents”.

Compound `Cc1[nH]c(CN2CCOCC2)c(C)c1-c1ccnc(Nc2ccc(F)cc2)n1` [Compound 55, [4-(2,4-Dimethyl-5-morpholin-4-ylmethyl-1H-pyrrol-3-yl)-pyrimidin-2-yl]-(4-fluoro-phenyl)-amine] registered a melting point of 94.7 to 97.6 °C. In addition, the IC50 in data set [1] (setting [6]) was less than 1000 nM. The IC50 in data set [1] (read-out: CDK2/cyclin E (IC50)) worked out at 870 nM.

`Cc1c[nH]c(C)c1-c1ccnc(Nc2cccc(C(F)(F)F)c2)n1` [Compound 13, [4-(2,4-Dimethyl-1H-pyrrol-3-yl)-pyrimidin-2-yl]-(3-trifluoromethyl-phenyl)-amine] yielded a melting point of 152.7 to 154.3 °C.

With `Cc1[nH]c(Cl)c(C)c1-c1ccnc(Nc2ccc(F)cc2)n1` [Compound 52, [4-(5-Chloro-2,4-dimethyl-1H-pyrrol-3-yl)-pyrimidin-2-yl]-(4-fluoro-phenyl)-amine], the IC50 in data set [1] (setting [6]) is less than 1000 nM.

Turning to `Cc1c[nH]c(C)c1-c1ccnc(Nc2ccc(F)cc2)n1` [Compound 1, [4-(2,4-Dimethyl-1H-pyrrol-3-yl)-pyrimidin-2-yl]-(4-fluoro-phenyl)-amine], the figures for the IC50 in data set [1] (setting [6]) and in data set [1] (read-out: CDK2/cyclin E (IC50)) were less than 1000 nM and 1000 ± 700 nM, respectively.

`Cc1c[nH]c(C)c1-c1ccnc(Nc2cccc(O)c2)n1` [Compound 8, 3-[4-(2,4-Dimethyl-1H-pyrrol-3-yl)-pyrimidin-2-ylamino]-phenol] yielded a melting point of 169 to 174.6 °C. Also, the IC50 in data set [1] (setting [6]) is less than 5000 nM. In addition, in data set [1] (read-out: CDK2/cyclin E (IC50)), the IC50 turned out to be 1400 nM.

With `Cc1c[nH]c(C)c1-c1ccnc(Nc2ccc(O)cc2)n1` [Compound 7, 4-[4-(2,4-Dimethyl-1H-pyrrol-3-yl)-pyrimidin-2-ylamino]-phenol], the melting point lay within 189.5 to 193.4 °C. Further, the IC50 in data set [1] (setting [6]) was less than 5000 nM. The IC50 in data set [1] (read-out: CDK2/cyclin E (IC50)) was found to be 2900 nM.

As to `Cc1c[nH]c(C)c1-c1ccnc(Nc2ccc(I)c(F)c2)n1` [Compound 17, [4-(2,4-Dimethyl-1H-pyrrol-3-yl)-pyrimidin-2-yl]-(3-fluoro-4-iodo-phenyl)-amine], the melting point fell in the range of 200 to 202 °C. In addition, the IC50 in data set [1] (setting [6]) was less than 5000 nM. In addition, in data set [1] (read-out: CDK2/cyclin E (IC50)), the IC50 is 1730 nM.

Take `Cc1cc(Nc2nccc(-c3c(C)[nH]c(C#N)c3C)n2)ccc1F` [Compound 41, 4-[2-(4-Fluoro-3-methyl-phenylamino)-pyrimidin-4-yl]-3,5-dimethyl-1H-pyrrole-2-carbonitrile]: the “anti-proliferative activity” value in data set [2] is on record as “particularly effective anti-proliferative agents”.

For `Cc1[nH]c(C#N)c(C)c1-c1ccnc(Nc2cccc(O)c2)n1` [Compound 36, 4-[2-(3-Hydroxy-phenylamino)-pyrimidin-4-yl]-3,5-dimethyl-1H-pyrrole-2-carbonitrile], in data set [2], the “anti-proliferative activity” value is listed as “particularly effective anti-proliferative agents”. Moreover, the IC50 is less than 500 nM in data set [1] (setting [6]) and 0.9 µM in data set [5].

On to `Cc1cn(C)c(C)c1-c1ccnc(Nc2ccc(F)cc2)n1` [Compound 46, (4-Fluoro-phenyl)-[4-(1,2,4-trimethyl-1H-pyrrol-3-yl)-pyrimidin-2-yl]-amine], for which, in data set [2], the “anti-proliferative activity” value is given as “particularly effective anti-proliferative agents”. Moreover, the IC50 is less than 5000 nM in data set [1] (setting [6]) and 1790 nM in data set [1] (read-out: CDK2/cyclin E (IC50)).

Turning to `Cc1c[nH]c(C)c1-c1ccnc(Nc2ccc(I)cc2)n1` [Compound 3, [4-(2,4-Dimethyl-1H-pyrrol-3-yl)-pyrimidin-2-yl]-(4-iodo-phenyl)-amine], the IC50 in data set [1] (setting [6]) was less than 500 nM; in data set [1] (read-out: CDK2/cyclin E (IC50)), 500 nM.

With `Cc1c[nH]c(C)c1-c1ccnc(Nc2cccc([N+](=O)[O-])c2)n1` [Compound 2], the “anti-proliferative activity” value in data set [2] is on record as “particularly effective anti-proliferative agents”.

With `Cc1ccc(Nc2nccc(-c3c(C)[nH]c(C#N)c3C)n2)cc1O` [Compound 40, 4-[2-(3-Hydroxy-4-methyl-phenylamino)-pyrimidin-4-yl]-3,5-dimethyl-1H-pyrrole-2-carbonitrile], the “anti-proliferative activity” value in data set [2] is given as “particularly effective anti-proliferative agents”.

In turn, `Cc1c[nH]c(C)c1-c1ccnc(Nc2ccc(Cl)cc2Cl)n1` [Compound 10, (2,4-Dichloro-phenyl)-[4-(2,4-dimethyl-1H-pyrrol-3-yl)-pyrimidin-2-yl]-amine] had a melting point of 158.5 to 159.7 °C.
